Where two headings read alike, the source gives them in different places. Marks after values point to notes of the source that are not given here.
How the values were obtained:
[1] = Protein binding to human plasma; type: in vitro ADME
[2] = system: T. brucei; test: T. brucei growth inhibition; type: cell-based, Trypanosoma brucei; settings: read-out: (D) T. brucei EC50
[3] = system: G. lamblia (ATCC GL50803); test: G. lamblia growth inhibition; type: cell-based; settings: Giardia duodenalis, read-out: (K) G. lamblia (ATCC GL50803) EC50
[4] = system: Cryptosporidium; test: C. parvum infection model, NOD SCID Gamma mice, oocysts in stool by PCR; type: in vivo, Cryptosporidium parvum; settings: treated 5 days
Experimental: (§1) Several compounds of the disclosure were also evaluated in vivo in C. parvum infection model and in acute T. cruzi infection model. Immunosuppressed mice (NOD SCID Gamma) with Cryptosporidium infection were treated for 5 days with test compounds. Cryptosporidium oocysts were quantified in stool by PCR. […] In FIG. 4, gamma-IFN knockout mice were used and, similarly, treated for 5 days with the test compound 2093. […] With respect to the T. cruzi, an efficacy model was employed in which the infection was monitored using bioluminescent T. cruz. With vehicle treatment, all mice died by day 14 post-infection.

[5] = system: Cryptosporidium parvum; test: C. parvum parasite burden model, gamma-IFN knockout mice, bioluminescence readout; type: in vivo
Experimental: FIG. 4 illustrates efficacy of MetRS inhibitors in a parasite burden model of Cryptosporidium parvum infection. About 1,000-fold reduction of parasite burden was observed after treatment by 2093.
as §1

[6] = system: T. cruzi; test: Acute T. cruzi infection model (bioluminescent T. cruzi); type: in vivo, Trypanosoma cruzi; settings: 50 mg/kg orally twice a day for five days
Experimental: FIG. 5 illustrates efficacy of a MetRS inhibitor in acute T. cruzi infection model. (A) Study protocol. Compounds were dosed orally with 50 mg/kg twice a day for five days, and the images were taken of day 6, 13, and 24. (B) Images and (C) graphs of the […] results.
as §1

[7] = Data from Drugbank; cited from earlier work

With Fc1ccc2nc(NCCCN[C@@H]3CCNc4c(Cl)cc(Cl)cc43)[nH]c2n1 [Compound 1717, (4R)-6,8-dichloro—N-[3-({5-fluoro-3H-imidazo[4,5-b]pyridin-2-yl}amino)propyl]-1,2,3,4-tetrahydroquinolin-4-amine, reference compound] the “% binding to human plasma” value [1] was 95.4%.
For CCn1c(Cc2ccc(Cl)cc2Cl)cn(Cc2nc3nc(F)ccc3[nH]2)c1=O [Compound 2062, 4-[(2,4-dichlorophenyl)methyl]-3-ethyl-1-({5-fluoro-1H-imidazo[4,5-b]pyridin-2-yl}methyl)-2,3-dihydro-1H-imidazol-2-one], the EC50 [2] was 3.48 nM.
For CCn1c(Cc2ccc(OC)cc2Cl)cn(Cc2nc3nc(Cl)ccc3[nH]2)c1=O [Compound 2093, 1-({5-chloro-1H-imidazo[4,5-b]pyridin-2-yl}methyl)-4-[(2-chloro-4-methoxyphenyl)methyl]-3-ethyl-2,3-dihydro-1H-imidazol-2-one], the EC50 [3] was 10 nM, the suppression of infection [4] was “over 99%” and the “reduction of parasite burden” value ([5]; FIG. 4) was “About 1,000 fold”. The “drop in fecal parasites” value ([5]; gamma-IFN knockout mice, treated 5 days, bioluminescence) was over 4 log, the tissue parasites [6] was “dramatic suppression of tissue parasites” and the survival ([6]; vehicle mice all died by day 14) was 100%.
CCn1c(Cc2ccc(OC)cc2Cl)cn(Cc2nc3nc(F)ccc3[nH]2)c1=O [Compound 2114, 4-[(2-chloro-4-methoxyphenyl)methyl]-3-ethyl-1-({5-fluoro-1H-imidazo[4,5-b]pyridin-2-yl}methyl)-2,3-dihydro-1H-imidazol-2-one] showed an EC50 ([2]; Trypanosoma brucei) of 1.4 nM.
For CC(=O)NC[C@H]1CN(c2ccc(N3CCOCC3)c(F)c2)C(=O)O1 [LNZ, linezolid], the “% binding to human plasma” value [7] is listed as 31* %.

Source: US11584744B2 (UNIVERSITY OF WASHINGTON, priority 2017, dated 2023)
